Assay results reported in ChEMBL document CHEMBL1154203, “N-[(3S)-Pyrrolidin-3-yl]benzamides as novel dual serotonin and noradrenaline reuptake inhibitors: impact of small structural modifications on P-gp recognition and CNS penetration” (Bioorg Med Chem Lett, 2009).

Test system: not listed separately
Experiment: in vitro
Settings: human, liver microsomes
Description: Intrinsic clearance in human liver microsomes

Row | microsomal CLint [µL/min/mg] | SMILES
1 | 29 | CC(C)CN(C(=O)c1cc(Cl)ccc1Cl)[C@H]1CCNC1
2 | 26 | CC(C)CN(C(=O)c1cccc(Cl)c1F)[C@H]1CCNC1
3 | 20 | CC(C)CN(C(=O)c1ccc(F)cc1Cl)[C@H]1CCNC1
4 | 26 | Cc1c(Cl)cccc1C(=O)N(CC(C)C)[C@H]1CCNC1
5 | 21 | Cc1c(F)cccc1C(=O)N(CC(C)C)[C@H]1CCNC1
6 | 20 | CC(C)CN(C(=O)c1cccc(F)c1Cl)[C@H]1CCNC1
7 | < 7 | CC(C)CN(C(=O)c1ccccc1C(C)C)[C@H]1CCNC1
8 | < 13 | CCN(C(=O)c1cccc(Cl)c1Cl)[C@H]1CCNC1
9 | 36 | CC(C)CN(C(=O)c1ccc(Cl)c(Cl)c1)[C@H]1CCNC1
10 | 23.5 | CC(C)CN(C(=O)c1cccc(Cl)c1)[C@H]1CCNC1
11 | 13 | O=C(c1cccc(Cl)c1Cl)N(C1=CCOC=C1)[C@H]1CCNC1

Row | SMILES | microsomal CLint [µL/min/mg]
12 | O=C(c1cccc(Cl)c1Cl)N(c1ccccc1)[C@H]1CCNC1 | < 25

Test system: MDR1
Experiment: Permeability from apical to basolateral side of MDCK cells over expressing MDR1
Format: ADME, cell-based, Canis lupus familiaris
Settings: dog

Row | Papp A→B [×10⁻⁶ cm/s] | SMILES
13 | 1 | O=C(c1cccc(Cl)c1Cl)N(C1=CCOC=C1)[C@H]1CCNC1

Test system: MDR1
Experiment: Permeability from basolateral to apical side of MDCK cells over expressing MDR1
Format: ADME, cell-based, Canis lupus familiaris
Settings: dog

Row | Papp B→A [×10⁻⁶ cm/s] | SMILES
14 | 20 | O=C(c1cccc(Cl)c1Cl)N(C1=CCOC=C1)[C@H]1CCNC1

Target: Sodium-dependent dopamine transporter (Homo sapiens, UniProt Q01959)
Sequence (Q01959 whole entry): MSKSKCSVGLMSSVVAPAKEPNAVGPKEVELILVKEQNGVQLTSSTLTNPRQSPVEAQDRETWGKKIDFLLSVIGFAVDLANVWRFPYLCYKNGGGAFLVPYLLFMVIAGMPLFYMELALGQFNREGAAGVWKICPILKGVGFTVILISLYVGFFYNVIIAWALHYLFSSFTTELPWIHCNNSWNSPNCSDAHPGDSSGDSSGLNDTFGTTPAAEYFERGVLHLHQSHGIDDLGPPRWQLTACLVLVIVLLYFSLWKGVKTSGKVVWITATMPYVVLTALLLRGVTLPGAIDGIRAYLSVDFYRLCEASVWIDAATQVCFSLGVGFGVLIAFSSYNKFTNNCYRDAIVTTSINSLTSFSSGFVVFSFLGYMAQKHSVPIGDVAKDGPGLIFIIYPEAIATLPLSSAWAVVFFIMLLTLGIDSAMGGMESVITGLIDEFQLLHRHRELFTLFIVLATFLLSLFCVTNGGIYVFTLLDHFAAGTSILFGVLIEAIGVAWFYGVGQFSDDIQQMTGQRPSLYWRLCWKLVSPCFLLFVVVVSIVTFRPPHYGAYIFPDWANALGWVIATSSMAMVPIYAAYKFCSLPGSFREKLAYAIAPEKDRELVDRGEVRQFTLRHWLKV
Experiment: biochemical
Settings: not given

Row | Ki [nM] | SMILES
15 | 2430 | CC(C)CN(C(=O)c1cc(Cl)ccc1Cl)[C@H]1CCNC1
16 | 2560 | CC(C)CN(C(=O)c1cccc(Cl)c1F)[C@H]1CCNC1
17 | 2540 | CC(C)CN(C(=O)c1ccc(F)cc1Cl)[C@H]1CCNC1
18 | 516 | Cc1c(Cl)cccc1C(=O)N(CC(C)C)[C@H]1CCNC1
19 | 1610 | Cc1c(F)cccc1C(=O)N(CC(C)C)[C@H]1CCNC1
20 | 2370 | CC(C)CN(C(=O)c1cccc(F)c1Cl)[C@H]1CCNC1
21 | 3590 | CC(C)CN(C(=O)c1ccccc1C(C)C)[C@H]1CCNC1
22 | 1090 | CCN(C(=O)c1cccc(Cl)c1Cl)[C@H]1CCNC1
23 | 430 | CC(C)CN(C(=O)c1ccc(Cl)c(Cl)c1)[C@H]1CCNC1
24 | 1330 | CC(C)CN(C(=O)c1cccc(Cl)c1)[C@H]1CCNC1
25 | 945 | O=C(c1cccc(Cl)c1Cl)N(C1=CCOC=C1)[C@H]1CCNC1

Row | SMILES | Ki [nM]
26 | O=C(c1cccc(Cl)c1Cl)N(c1ccccc1)[C@H]1CCNC1 | 501

Test system: MDR1
Experiment: in vitro
Settings: dog, MDCK-MDR1
Description: Efflux ratio of permeability from apical to basolateral over basolateral to apical side in MDCK cells over expressing MDR1

Row | efflux ratio | SMILES
27 | 20 | O=C(c1cccc(Cl)c1Cl)N(C1=CCOC=C1)[C@H]1CCNC1

Target: Voltage-gated inwardly rectifying potassium channel KCNH2 (Homo sapiens, UniProt Q12809)
Sequence (Q12809 whole entry): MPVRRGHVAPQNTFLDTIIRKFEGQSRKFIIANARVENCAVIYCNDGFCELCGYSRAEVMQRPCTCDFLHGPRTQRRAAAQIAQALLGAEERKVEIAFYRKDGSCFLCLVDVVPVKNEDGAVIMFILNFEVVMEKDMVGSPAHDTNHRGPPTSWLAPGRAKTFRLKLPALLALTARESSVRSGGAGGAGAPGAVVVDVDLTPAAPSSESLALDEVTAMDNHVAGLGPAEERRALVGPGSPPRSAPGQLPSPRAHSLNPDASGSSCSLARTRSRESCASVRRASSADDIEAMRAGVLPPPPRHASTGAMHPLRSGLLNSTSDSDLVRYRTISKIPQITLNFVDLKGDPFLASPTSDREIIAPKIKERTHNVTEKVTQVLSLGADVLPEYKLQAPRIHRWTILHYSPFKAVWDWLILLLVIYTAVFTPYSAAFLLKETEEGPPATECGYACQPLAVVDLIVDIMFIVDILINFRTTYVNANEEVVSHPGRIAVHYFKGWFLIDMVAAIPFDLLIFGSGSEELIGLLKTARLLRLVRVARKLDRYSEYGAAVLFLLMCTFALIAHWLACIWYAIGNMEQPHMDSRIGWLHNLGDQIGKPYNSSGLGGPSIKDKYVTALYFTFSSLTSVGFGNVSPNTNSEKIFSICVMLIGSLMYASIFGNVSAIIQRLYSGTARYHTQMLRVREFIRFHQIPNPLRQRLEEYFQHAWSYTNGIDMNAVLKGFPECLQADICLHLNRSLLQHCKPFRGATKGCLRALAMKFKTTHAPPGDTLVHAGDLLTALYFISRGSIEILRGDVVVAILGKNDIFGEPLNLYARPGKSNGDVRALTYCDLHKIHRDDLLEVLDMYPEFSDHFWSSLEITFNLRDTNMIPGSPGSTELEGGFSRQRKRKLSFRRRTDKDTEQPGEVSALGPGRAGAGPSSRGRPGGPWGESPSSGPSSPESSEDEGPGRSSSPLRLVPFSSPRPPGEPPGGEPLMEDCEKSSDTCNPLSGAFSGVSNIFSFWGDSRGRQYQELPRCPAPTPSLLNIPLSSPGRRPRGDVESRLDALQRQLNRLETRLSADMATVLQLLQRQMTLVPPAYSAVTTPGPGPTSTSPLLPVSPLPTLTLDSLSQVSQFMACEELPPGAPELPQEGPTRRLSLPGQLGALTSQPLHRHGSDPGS
Experiment: not given
Settings: not given

Row | SMILES | IC50 [nM]
28 | CC(C)CN(C(=O)c1cc(Cl)ccc1Cl)[C@H]1CCNC1 | 19800
29 | CC(C)CN(C(=O)c1cccc(Cl)c1F)[C@H]1CCNC1 | > 10000
30 | Cc1c(Cl)cccc1C(=O)N(CC(C)C)[C@H]1CCNC1 | 52400
31 | CC(C)CN(C(=O)c1ccccc1C(C)C)[C@H]1CCNC1 | 12900
32 | CCN(C(=O)c1cccc(Cl)c1Cl)[C@H]1CCNC1 | > 20000
33 | O=C(c1cccc(Cl)c1Cl)N(C1=CCOC=C1)[C@H]1CCNC1 | > 40000
34 | O=C(c1cccc(Cl)c1Cl)N(c1ccccc1)[C@H]1CCNC1 | 7920

Target: Sodium-dependent noradrenaline transporter (Homo sapiens, UniProt P23975)
Sequence (P23975 whole entry): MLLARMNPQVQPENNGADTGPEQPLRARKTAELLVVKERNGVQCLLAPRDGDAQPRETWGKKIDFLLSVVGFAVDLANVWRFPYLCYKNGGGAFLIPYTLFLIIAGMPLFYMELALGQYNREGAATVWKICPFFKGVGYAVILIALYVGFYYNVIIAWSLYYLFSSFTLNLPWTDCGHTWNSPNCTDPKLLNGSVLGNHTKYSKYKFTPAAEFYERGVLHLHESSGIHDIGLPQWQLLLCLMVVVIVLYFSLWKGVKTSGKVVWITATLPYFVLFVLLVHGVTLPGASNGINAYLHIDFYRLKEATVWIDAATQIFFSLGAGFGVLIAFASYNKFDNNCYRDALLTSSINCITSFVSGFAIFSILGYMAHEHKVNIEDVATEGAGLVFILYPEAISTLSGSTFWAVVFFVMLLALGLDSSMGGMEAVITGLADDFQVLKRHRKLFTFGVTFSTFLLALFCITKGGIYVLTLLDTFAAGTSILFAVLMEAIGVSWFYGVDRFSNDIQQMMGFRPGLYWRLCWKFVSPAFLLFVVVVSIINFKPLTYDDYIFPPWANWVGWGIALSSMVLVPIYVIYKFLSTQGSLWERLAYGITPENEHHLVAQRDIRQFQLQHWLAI
Experiment: biochemical
Settings: not given

Row | Ki [nM] | SMILES
35 | 198 | CC(C)CN(C(=O)c1cc(Cl)ccc1Cl)[C@H]1CCNC1
36 | 139 | CC(C)CN(C(=O)c1cccc(Cl)c1F)[C@H]1CCNC1
37 | 263 | CC(C)CN(C(=O)c1ccc(F)cc1Cl)[C@H]1CCNC1
38 | 29 | Cc1c(Cl)cccc1C(=O)N(CC(C)C)[C@H]1CCNC1
39 | 69 | Cc1c(F)cccc1C(=O)N(CC(C)C)[C@H]1CCNC1
40 | 67 | CC(C)CN(C(=O)c1cccc(F)c1Cl)[C@H]1CCNC1
41 | 65 | CC(C)CN(C(=O)c1ccccc1C(C)C)[C@H]1CCNC1
42 | 217 | CCN(C(=O)c1cccc(Cl)c1Cl)[C@H]1CCNC1
43 | 50 | CC(C)CN(C(=O)c1ccc(Cl)c(Cl)c1)[C@H]1CCNC1
44 | 135 | CC(C)CN(C(=O)c1cccc(Cl)c1)[C@H]1CCNC1
45 | 10 | O=C(c1cccc(Cl)c1Cl)N(C1=CCOC=C1)[C@H]1CCNC1

Row | SMILES | Ki [nM]
46 | O=C(c1cccc(Cl)c1Cl)N(c1ccccc1)[C@H]1CCNC1 | 11

Target: Sodium-dependent serotonin transporter (Homo sapiens, UniProt P31645)
Sequence (P31645 whole entry): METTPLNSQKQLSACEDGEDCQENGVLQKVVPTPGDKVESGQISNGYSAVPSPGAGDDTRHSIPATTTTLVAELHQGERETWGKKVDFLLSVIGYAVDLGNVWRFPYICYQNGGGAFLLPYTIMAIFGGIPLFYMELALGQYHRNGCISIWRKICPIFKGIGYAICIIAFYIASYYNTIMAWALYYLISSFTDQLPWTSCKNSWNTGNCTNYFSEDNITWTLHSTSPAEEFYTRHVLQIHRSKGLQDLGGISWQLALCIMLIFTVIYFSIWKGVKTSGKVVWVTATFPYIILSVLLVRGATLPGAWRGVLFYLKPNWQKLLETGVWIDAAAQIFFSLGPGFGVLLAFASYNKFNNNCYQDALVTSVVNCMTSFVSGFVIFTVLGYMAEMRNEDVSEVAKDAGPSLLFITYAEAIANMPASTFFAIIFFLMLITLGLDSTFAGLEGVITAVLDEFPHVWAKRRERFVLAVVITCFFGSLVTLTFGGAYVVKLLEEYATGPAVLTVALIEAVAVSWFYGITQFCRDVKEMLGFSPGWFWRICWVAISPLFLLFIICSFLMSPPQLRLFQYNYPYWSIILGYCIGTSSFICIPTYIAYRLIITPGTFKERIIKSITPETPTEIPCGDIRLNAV
Experiment: biochemical
Settings: not given

Row | Ki [nM] | SMILES
47 | 54 | CC(C)CN(C(=O)c1cc(Cl)ccc1Cl)[C@H]1CCNC1
48 | 10 | CC(C)CN(C(=O)c1cccc(Cl)c1F)[C@H]1CCNC1
49 | 7 | CC(C)CN(C(=O)c1ccc(F)cc1Cl)[C@H]1CCNC1
50 | 3 | Cc1c(Cl)cccc1C(=O)N(CC(C)C)[C@H]1CCNC1
51 | 13 | Cc1c(F)cccc1C(=O)N(CC(C)C)[C@H]1CCNC1
52 | 15 | CC(C)CN(C(=O)c1cccc(F)c1Cl)[C@H]1CCNC1
53 | 1320 | CC(C)CN(C(=O)c1ccccc1C(C)C)[C@H]1CCNC1
54 | 29 | CCN(C(=O)c1cccc(Cl)c1Cl)[C@H]1CCNC1
55 | 4 | CC(C)CN(C(=O)c1ccc(Cl)c(Cl)c1)[C@H]1CCNC1
56 | 19 | CC(C)CN(C(=O)c1cccc(Cl)c1)[C@H]1CCNC1
57 | 6 | O=C(c1cccc(Cl)c1Cl)N(C1=CCOC=C1)[C@H]1CCNC1

Row | SMILES | Ki [nM]
58 | O=C(c1cccc(Cl)c1Cl)N(c1ccccc1)[C@H]1CCNC1 | 3
